Laboratory results taken from patent US12173042B2, “Methods of treating cancers with CT45 targeted therapies” (The University of Chicago, priority 2016, dated 2024).

Columns and labels:
Assay type in all cases: cell-based, human
[1] = system: interaction of CT45 with heterochromatin-associated PP4; assay: ChIP-MS of V5-tagged CT45 ± carboplatin; conditions: OVCAR5-V5-CT45 ± carboplatin
Protocol: For chromatin immunoprecipitation coupled to mass spectrometry (ChIP-MS), freshly harvested cells were crosslinked with 1% formaldehyde for 10 min in PBS. Cells were lysed in IP Buffer (50 mM Tris-HCl (pH 8), 100 mM NaCl, 5 mM EDTA (pH 8), 0.3% SDS, 1.7% Triton-X-100, supplemented with EDTA-free protease inhibitor cocktail (Roche) and phosphatase inhibitor cocktail (Roche)) and chromatin sonicated to an average size of 200-400 bp. 1 mg of total cell lysate was incubated with 3 μg of respective antibody overnight at 4° C. under constant rotation. The next day, 30 μl of protein G-coupled agarose beads (Cell signaling technology) were added and incubated for 3 h at 4° C. under constant rotation. Antibody-bait complexes were then washed three times with low salt wash buffer (50 mM HEPES pH 7.5, 140 mM NaCl, 1% Triton), once with high salt wash buffer (50 mM HEPES pH 7.5, 500 mM NaCl, 1% Triton) and twice with TBS. Elution was carried out by a partial on-bead digest as recently described. Peptides were finally desalted with C18 StageTips prior to MS analysis.

[2] = system: chromatin enrichment of KAP-1 or PP4; assay: Chromatin fractionation; conditions: OVCAR5-V5-CT45 cell line
Protocol: Chromatin fractionation was performed as described previously. Soluble proteins and proteins bound to open or compacted chromatin were separated by stepwise increasing the salt and nuclease (MNase) treatment. 1E7 cells were washed with PBS and 1 ml low salt buffer (LSB: 10 mM HEPES [pH 7.4], 25 mM KCl, 10 mM NaCl, 1 mM MgCl2, 0.1 mM EDTA). Pelleted cells were then resuspended in six times the packed cell volume (PCV) of LSB supplemented with protease and phosphatase inhibitor cocktail (Roche). After snap freezing in liquid nitrogen, samples were quickly thawed and immediately centrifuged (10 min at 10,000 rpm). The pellet was resuspended in a volume of high-salt buffer (HSB: 50 mM Tris-HCl [pH 8.0], 5% [v/v] glycerol, 1 mM EDTA, 10 mM MgCl2, 400 mM KCl, supplemented with protease and phosphatase inhibitor cocktail), equal to 0.25 V of LSB. After centrifugation at 10,000 rpm (supernatant=nucleoplasmic fraction), the pellet was resuspended in a volume nuclease buffer containing 10 U/ml MNase (NEB) and incubated at 37° C. for 10 min and centrifuged for 5 min at 10,000 rpm (supernatant=chromatin fraction 1). The pellet was then resuspended in the same volume of nuclease buffer containing 100 U/ml MNase and incubated another 45 min at 37° C. before an equal V of solubilization buffer (nuclease buffer+2% [v/v] NP-40, 2% [v/v] Triton X-100, 600 mM NaCl) was added. […]

[3] = system: OVCAR5-V5-CT45 cells; assay: Nuclear size (DAPI); conditions: cells expressing CT45, day 5, carboplatin 5 μM
Protocol: FIG. 13A-I. CT45 interferes with chromatin dynamics after DNA damage. A, Western blot analysis of OVCAR5 and OVKATE cell line pairs treated with carboplatin (5 μM). Day 3. B, Immunofluorescence staining of KAP1-S824 γH2AX and DAPI in OVCAR5-V5 and OVCAR5-V5-CT45 cell line pair with or without carboplatin treatment (5 μM) at day 3, 5, and 7. Data are means+/−s.e.m. of 5 independent replicates (right panel). Representative cells are shown left. C, CT45 positive 59M cells were collected and processed for a chromatin segregation assay as detailed in the Methods. PP4 complex members, KAP1, and HDAC2 were detected by western blot. D, Volcano plot of chromatin-immunoprecipitation mass spectrometry (ChIP-MS) results for the V5-tag in OVCAR5-V5-CT45 vs. OVCAR5-V5 cell line. Fold enrichment of V5-tagged CT45 over control cell line (V5 tag alone) is plotted against the t-test p-value (−log10). Dashed lines indicate significance thresholds (FDR<0.01, s0=2). […] Most significant pathways are ranked by enrichment false-discovery rate. F, Fold change in nuclear sizes of OVCAR5-V5-CT45 and OVCAR5-V5 cells at day 5 with carboplatin (5 μM) treatment normalized to untreated cells. Representative DAPI images are shown in upper panel. Bar plots represent nuclear sizes from 5 independent experiments. Scale ar=[…]. Data are means+/−s.e.m. […]

[4] = system: γH2AX and cleaved caspase-3 in CT45-expressing cancer cells; assay: Western blot of γH2AX and cleaved caspase-3; conditions: day 5
Protocol: (§1) Cells were treated with 5 μM carboplatin plus 1.5 nM paxlitaxel for 3 days and then incubated an additional 2 days without drug prior to collection on day 5. Both adherent and non-adherent cells were collected in RIPA buffer (25 mM Tris-HCl pH 7.6, 150 mM NaCl, 1% NP-40, 0.5% sodium deoxycholate, 0.1% SDS) supplemented with protease inhibitor cocktail (Thermo Scientific) and phosphatase inhibitor cocktail (Sigma). Lysates were incubated for 30 min on ice before centrifugation (15 min, 14 000 rpm, 4° C.). The quantity of protein was determined by BCA reagent (Pierce). The extracts were analyzed by SDS-PAGE on a 4-20% gradient gel (Bio-Rad).
as §1, with “indicated drugs” for “5 μM carboplatin plus 1.5 nM paxlitaxel”, “media was changed. On indicated” for “incubated an additional 2 days without drug prior to collection on”, “of collection, both” for “5. Both”, “ice, sonicated and cleared by” for “ice before”

## N.N.O=C([O-])C1(C(=O)[O-])CCC1.[Pt+2] [carboplatin]
[1]
  interaction of CT45 with heterochromatin-associated PP4: not affected
[2]
  chromatin enrichment of KAP-1 or PP4: did not find
[3]
  nuclear size: larger nuclei
[4]
  levels of cleaved caspase-3: increased levels
  levels of γH2AX: increased levels
